This note sets out measurements from patent US20190224214A1, “HUMAN GHRELIN O-ACYLTRANSFERASE INHIBITORS” (SYRACUSE UNIVERSITY, priority 2016, published 2019).

Each structure is given as a SMILES string. Like-named read-outs stand apart in the source and are kept apart here.

Series [1] has as its target T1, hGOAT (Homo sapiens, UniProt Q96T53).
T1 construct: made in house; host or cells: Sf9 insect cells (membrane fraction)
T1 sequence (Q96T53 1-435): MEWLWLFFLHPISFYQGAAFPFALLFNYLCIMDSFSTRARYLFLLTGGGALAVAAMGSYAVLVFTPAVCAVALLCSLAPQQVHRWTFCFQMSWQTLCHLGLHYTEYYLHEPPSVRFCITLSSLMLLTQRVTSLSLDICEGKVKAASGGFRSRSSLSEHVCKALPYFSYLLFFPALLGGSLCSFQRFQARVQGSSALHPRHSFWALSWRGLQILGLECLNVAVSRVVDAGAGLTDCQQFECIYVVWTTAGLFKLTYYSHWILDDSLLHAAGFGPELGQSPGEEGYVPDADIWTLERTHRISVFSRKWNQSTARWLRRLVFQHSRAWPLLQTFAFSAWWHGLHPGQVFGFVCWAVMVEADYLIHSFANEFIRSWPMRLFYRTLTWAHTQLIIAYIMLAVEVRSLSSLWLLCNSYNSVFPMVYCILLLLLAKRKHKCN
Nature of the series: Inhibitor reversibility assay (10-fold dilution after pretreatment at 3x IC50). Format: biochemical. Particulars: pretreatment at 3x IC50, then 10-fold dilution. On the procedure: The reversibility of hGOAT inhibition by the α-cyanoenone compounds 3 and 9 was determined by enzyme pretreatment with each inhibitor at three times the measured IC50 concentration, followed by a 10-fold dilution into either reaction buffer or buffer containing the same inhibitor concentration as the pretreatment.
Undiluted homogenized membrane protein fraction containing hGOAT (protein concentration ˜7 μg/μL) was incubated with 10 μM MAFP and 3×IC50 of inhibitor or equal volume vehicle (DMSO or ethanol) for 30 minutes at room temperature. […] Reactions were incubated for 3 hours at room temperature in the dark and then analyzed as described above.

The target of series [2] is T1, hGOAT. Description: fluorescence-based in vitro hGOAT activity assay (ghrelin octanoylation, HPLC readout). Format: biochemical. On the procedure:
hGOAT was expressed and enriched in insect (Sf9) cell membrane fractions using a previously published procedure.
Peptide substrates were labeled with acrylodan on a cysteine thiol and HPLC purified as previously reported.
hGOAT activity assays were performed using a modification of previously reported protocols. For each assay, membrane fraction from Sf9 cells expressing hGOAT was thawed on ice and passed through an 18-gauge needle 10 times to homogenize. Assays were performed with ˜100 μg of membrane protein, as determined by Bradford assay. Membrane fraction was preincubated with 1 μM methoxy arachadonyl fluorophosphonate (MAFP) and inhibitor or vehicle as indicated in 50 mM HEPES pH 7.0 for 30 minutes at room temperature. Reactions were initiated with the addition of 500 µM octanoyl CoA and 1.5 μM fluorescently-labeled ghrelin mimetic, GSSFLCAcrylodan, for a total volume of 50 μL, and were incubated for 3 hours at room temperature in the dark. Reactions were stopped with the addition of 50 μL of 20% acetic acid in isopropanol, and solutions were clarified by protein precipitation with 16.7 μL of 20% trichloroacetic acid, followed by centrifugation (1,000×g, 1 minute). The supernatant was then analyzed by reverse phase HPLC, as previously described. Data reported are the average of three independent determinations, with error bars representing one standard deviation.
For inhibition experiments, reactions were performed and analyzed as described in the presence of either inhibitor or vehicle (DMSO or ethanol) as appropriate. The percent activity at each inhibitor concentration calculated from HPLC data using equations 1 and 2: […]
To determine the IC50 value, the plot of % activity versus [inhibitor] was fit to equation 3, with % activity0 denoting hGOAT activity in the presence of the vehicle alone: […]

Where [3] appears, read: read-out: IC50, inhibition of hGOAT activity.
Where [4] appears, read: hGOAT activity, individual trials, read-out: IC50 (individual trials).
Setting [5] is: hGOAT activity, averaged, read-out: IC50 (averaged).
Where [6] appears, read: unit inferred, read-out: IC50, inhibition of hGOAT.

On to `CCNC(=O)[C@]12CCC(C)(C)C[C@H]1[C@H]1C(=O)C=C3[C@@]4(C)C=C(C#N)C(=O)C(C)(C)[C@@H]4CC[C@@]3(C)[C@]1(C)CC2` [CDDO-EA], for which the “reversibility of hGOAT inhibition” value in series [1] was “reversible hGOAT inhibition”. Also, the 50% inhibitory concentration (IC50) in series [2] (setting [3]) was found to be 8 ± 4 µM.
As for `CC1(C)CC[C@]2(C(=O)n3ccnc3)CC[C@]3(C)[C@H](C(=O)C=C4[C@@]5(C)C=C(C#N)C(=O)C(C)(C)[C@@H]5CC[C@]43C)[C@@H]2C1` [CDDO-Im, 1[2-cyano-3,12-dioxooleana-1,9-dien-28-oyl]imidazole, reference compound], in series [2] (setting [3]), the concentration for half-maximal inhibition (IC50) is 38 ± 6 µM.
Regarding `COC(=O)[C@]12CCC(C)(C)C[C@H]1[C@H]1C(=O)C=C3[C@@]4(C)C=C(C#N)C(=O)C(C)(C)[C@@H]4CC[C@@]3(C)[C@]1(C)CC2` [CDDO-Me, methyl 2-cyano-3,12-dioxooleana-1,9(11)dien-28-oate, reference compound], the “inhibition of hGOAT octanoylation activity (in words)” value in series [2] is “exhibits inhibitory activity against hGOAT”.
Still for that read-out and setting: in the case of `CC1(C)CC[C@]2(C(=O)O)CC[C@]3(C)[C@H](C(=O)C=C4[C@@]5(C)C=C(C#N)C(=O)C(C)(C)[C@@H]5CC[C@]43C)[C@@H]2C1` [Compound 5, reference compound] it was “lack of inhibition activity”.
`C[C@@]12CCC[C@H]1[C@@H]1CC[C@H]3CC(=O)C(C#N)=C[C@]3(C)[C@H]1CC2` [Compound 9, (5S,8S,9S,10S,13S,14S)-10,13-dimethyl-3-oxo-4,5,6,7,8,9,10,11,12,13,14,15,16,17-tetradecahydro-3H-cyclopenta[a]phenanthrene-2-carbonitrile]: the “reversibility of hGOAT inhibition” value in series [1] was “reversible hGOAT inhibition”. For the same molecule, the figures for the IC50 in series [2] (setting [4]) and in series [2] (setting [3]) were 7 ± 3 µM and 8 ± 2 µM, respectively. Further, in series [2] (α-cyanoenone 9 versus 16), the “enhancement of inhibitor potency against hGOAT by the steroid scaffold” value is ~150 fold.
In the case of `C[C@@]12CCC[C@H]1[C@@H]1CC[C@H]3CC(=O)C(Br)=C[C@]3(C)[C@H]1CC2` [Compound 10, (5 S,8S,9S,10S,13S,14S)-10,13-dimethyl-3-oxo-4,5,6,7,8,9,10,11,12,13,14,15,16,17-tetradecahydro-3H-cyclopenta[a]phenanthrene-2-bromide], the melting point lay in the range of 111 to 116 °C. The IC50 in series [2] (setting [5]) was 83 ± 29 µM. Also, the half-inhibitory concentration (IC50) in series [2] (setting [4]) was 84 ± 35 µM.
Turning to `C[C@@]12CCC[C@H]1[C@@H]1CC[C@H]3CC(=O)C=C[C@]3(C)[C@H]1CC2` [Compound 11, (2R,5S,8S,9S,10S,13S,14S)-10,13-dimethyl-4,5,6,7,8,9,10,11,12,13,14,15,16,17-tetradecahydro-3H-cyclopenta[a]phenanthren-3-one], the concentration for half-maximal inhibition (IC50) in series [2] (setting [5]) is 166 ± 58 µM; in series [2] (setting [4]), 201 ± 107 µM; in series [2] (setting [6]) it was 170 ± 60 µM.
With `C[C@@]12CCC[C@H]1[C@@H]1CC[C@H]3CC(=O)CC[C@]3(C)[C@H]1CC2` [Compound 12, (5S,8S,9S,10S,13S,14S)-10,13-dimethyltetradecahydro-1H-cyclopenta[a]phenanthren-3(2H)-one], the “inhibition of hGOAT octanoylation activity (in words)” value in series [2] is recorded as “loss of inhibition”.
Still for that read-out and setting: in the case of `C[C@@]12CCC[C@H]1[C@@H]1CC[C@H]3CC(=O)[C@H](Br)C[C@]3(C)[C@H]1CC2` [Compound 13, (2R,5S,8S,9S,10S,13S,14S)-2-bromo-10,13-dimethyltetradecahydro-1H-cyclopenta[a]phenanthren-3(2H)-one] it was “unable to support inhibition”; in that of `CC(C)CCC[C@@H](C)[C@H]1CC[C@H]2[C@@H]3CCC4=CC(=O)CC[C@]4(C)[C@H]3CC[C@]12C` [Compound 14, (8S,9S,10R,13R,14S,17R)-10,13-dimethyl-17-((R)-6-methylheptan-2-yl)-6,7,8,9,10,11,12,13,14,15,16,17-dodecahydro-1H-cyclopenta[a]phenanthren-3(2H)-one], “abrogates inhibition of hGOAT”.
As to `N#CC1=CCCCC1=O` [Compound 16, 6-oxocyclohex-1-enecarbonitrile], the IC50 in series [2] (read-out: IC50, inhibition of hGOAT) worked out at 1200 ± 200 µM.
`O=C1CCCC=C1Br` [Compound 17, 2-bromocyclohex-2-enone]: in series [2] (setting [6]), the IC50 was determined as 500 ± 100 µM.
With `O=C1C=CCCC1` [Compound 18, cyclohexenone, reference compound], in series [2] (at concentrations up to 1 mM), the “inhibition of hGOAT activity (in words)” value is “does not inhibit hGOAT activity”.
For the molecule `CCN1C(=O)C=CC1=O` [NEM, N-ethylmaleimide], in series [1], the “reversibility of hGOAT inhibition” value was “classical irreversible hGOAT inhibition”. Also, the “inhibition of hGOAT octanoylation activity (in words)” value in series [2] is given as “efficiently inhibits hGOAT”.
For the molecule `CC1(C)CC[C@]2(C)CC=C3[C@]4(C)CC[C@H]5C(C)(C)[C@@H](O)CC[C@]5(C)[C@H]4CC[C@@]3(C)[C@@H]2C1` [Taraxerol, taraxerol, reference compound], the “inhibition of hGOAT acylation activity (in words)” value in series [2] (at concentrations up to 100 (unit not given)) is “fails to inhibit”.
On to `CC1(C)CC[C@]2(C(=O)O)CC[C@]3(C)C(=CC[C@@H]4[C@@]5(C)CC[C@H](O)C(C)(C)[C@@H]5CC[C@]43C)[C@@H]2C1` [oleanic acid, reference compound], for which the “inhibition of hGOAT activity (in words)” value in series [2] (at concentrations up to 100 μM) is reported as “negligible inhibition”.
On the same count and under the same terms, in the case of `C[C@H]1[C@H](C)CC[C@]2(C(=O)O)CC[C@]3(C)C(=CC[C@@H]4[C@@]5(C)CC[C@H](O)C(C)(C)[C@@H]5CC[C@]43C)[C@H]12` [ursolic acid, reference compound] it was “negligible inhibition”.
